Test system: Mycobacterium tuberculosis
Test: Antimycobacterial activity against Mycobacterium tuberculosis H37Rv ATCC 27294 assessed as inhibition of microbial growth at 10 uM after 5 to 8 days by MABA method
Format: functional
Conditions: read-out: GI

| Structure (SMILES) | inhibition of growth at 10 µM [%] |
| --- | --- |
| COc1ccc(-c2coc3cc(F)ccc3c2=O)cc1 | 0 |
| COc1ccc(-c2coc3ccc(O)cc3c2=O)cc1 | 28 |
| N#Cc1ccc(-c2coc3cc(O)ccc3c2=O)cc1 | 16 |
| COc1ccc(-c2coc3ccc(Br)cc3c2=O)cc1 | 5 |
| COc1ccc(-c2coc3ccc(F)cc3c2=O)cc1 | 0 |
| CC(C)(C)c1ccc(-c2coc3cc(O)ccc3c2=O)cc1 | 95 |
| COc1ccc(/C=C/C(=O)c2ccc(O)cc2O)cc1 | 58 |
| COc1ccc(-c2coc3cc(O)ccc3c2=O)cc1F | 13 |
| COc1ccc(-c2c[nH]nc2-c2ccc(O)cc2O)cc1 | 40 |
| COc1ccc(-c2coc3cc(O)ccc3c2=O)cn1 | 0 |
| COc1ccc(-c2coc3cc(O)ccc3c2=O)cc1OC [CLADRIN] | 14 |
| COc1ccc(-c2coc3ccc(OC)cc3c2=O)cc1 | 0 |
| COc1ccc(-c2cnoc2-c2ccc(O)cc2O)cc1 | 15 |
| COc1ccc(-c2coc3cc(O)ccc3c2=O)cc1 [FORMONONETIN] | 88 |
| O=c1c(-c2ccc(Cl)cc2)coc2cc(O)ccc12 | 54 |
| COc1ccc(-c2coc3cc(F)ccc3c2=O)cn1 | 2 |
| COc1ccc(-c2coc3ccccc3c2=O)cc1 | 0 |
| O=c1c(-c2ccccc2)coc2ccccc12 [ISOFLAVONE] | 0 |
| COc1ccc(-c2coc3ccc(Cl)cc3c2=O)cc1 | 0 |
| COc1ccc(-c2coc3ccc(C)cc3c2=O)cc1 | 7 |
| COc1ccc(-c2coc3cc(O)ccc3c2=S)cc1 | 4 |
